Test results published in patent US11524943B1 (Vivace Therapeutics, Inc., priority 2017, dated 2022).
pIC50: −log10 of the molar value.

Test system: HEK293T cells stably transfected with 8×TBD luciferase reporter and pRLTK
Experiment: YAP Reporter Assay (8×TBD firefly luciferase reporter)
Type: cell-based
Conditions: Homo sapiens, HEK-293T; HEK293T 8×TBD reporter cells, 24-hr incubation, top concentration 3 μM, 1:3 dilution, 10 points
Method: HEK293T cells stably transfected with 8×TBD luciferase reporter and pRLTK in 384-well plates were treated with the test compounds, starting from 3 μM (final concentration in assay plate), 1:3 dilution, and 10 points in quadruplicates. Post 24-hr incubation with compounds at 37° C. and 5% CO2, cells were lysed and 8×TBD-driven firefly luciferase and control TK-driven renilla luciferase activities were measured using Promega Dual-Luciferase Reporter Assay System.
Reagents: The reagents used for this study are: DMEM: Invitrogen #11960077, Dual-Glo Luciferase Assay System: Promega-E2980, Puromycin Dihydrochloride: Invitrogen-A1113803, 384-well plate: PerkinElmer-6007480, L-GLUTAMINE: Invitrogen-25030164, Hygromycin B: Invitrogen-10687010, and Penicillin-Streptomycin: Merk-TMS-AB2-C
Media: The media used for this assay were: Culture Medium: DMEM+1 ug/mL puromycin+200 ug/mL hygromycin (with 10% FBS+1 mM L-glutamine); and Assay Medium: DMEM (with 10% FBS+1 mM L-glutamine+1×P/S).
Cell Plating: The appropriate media was warmed at 37° C. by water bath: Culture Medium, Assay Medium, 1*D-PBS, 0.05% trypsin-EDTA. The cells were trypsinized after removing all media, then washed with 1* sterile D-PBS and then with 2 ml 0.05% trypsin-EDTA. The cells were then incubated at RT for one minute. Then 10 ml/75 cm2 flask Assay Medium was added to each flask. Using a 10 ml pipette, the cells were then gently resuspended in the media, until the clumps completely disappeared. The cells were then transferred into 50 ml centrifuge tubes and were centrifuged at 800 rpm for 5 mins. The medium was removed and the cells were resuspended with Assay Medium. An aliquot of cells was used to count the cell density (cells/ml). The cell suspension was then diluted with Assay Medium to a concentration of 6×10^4 cells/ml. 50 ul cells suspension was then plated to 384-well plate (PerkinElmer-6007480), 3×10^3 cells/well and the cells were incubated in an incubator at 37° C., 5% CO2.
Compound Treatment: In the afternoon (incubation of the plate with 3-4 hrs), the test compounds were added by Echo, starting from 3 uM (final concentration in the assay plate), 1:3 dilution, 10 points, quadruplicates. The plate was placed at 37° C., 5% CO2 incubator for 24 hrs.
Detection: The Dual-Glo Luciferase Reagent was prepared by transferring the contents of one bottle of Dual-Glo Luciferase Buffer to one bottle of Dual-Glo Luciferase Substrate to create the Dual-Glo Luciferase Reagent. Mixing was performed by inversion until the substrate was thoroughly dissolved. After mixing, the reagent was aliquoted into 15 ml tubes. In the afternoon (24 hrs post compound treatment), the DMEM+ medium in the 384 well plates were aspirated by Microplate Washer.
Measuring firefly luciferase activity: 20 ul Dual-Glo Luciferase Reagent was added to the 384-well plates. The plates were protected from light to prevent interference with the assay. The plates were shaken for 1 min followed centrifuging plates at 1000 rpm for 30 seconds. After waiting at least 10 minutes, the firefly luminescence was measured by Envision.
Measuring renilla luciferase activity: 20 ul Stop-Glo Reagent was added to the 384-well plates. The plates were shaken for 1 min and then centrifuged at 1000 rpm for 30 seconds. After waiting at least 10 minutes, the renilla luminescence was measured by Envision.
Compound IC50 and maximum inhibition on the firefly luciferase and renilla luciferase activities were reported separately.

Row | Structure (SMILES) | pIC50
1 | Cn1nnc(-c2cc(C(=O)NS(C)(=O)=O)ccc2Nc2ccc(C(F)(F)F)cc2)n1 [Compound 15, 3-(2-methyl-2H-tetrazol-5-yl)-N-(methylsulfonyl)-4-((4-(trifluoromethyl)phenyl)amino) benzamide] | ≥ 7.00
2 | Cn1cnc(-c2cc(C(=O)O)ccc2Nc2ccc(C(F)(F)F)cc2)c1 [Compound 28, 3-(1-methyl-1H-imidazol-4-yl)-4-((4-(trifluoromethyl)phenyl)amino) benzoic acid] | ≥ 7.00
3 | O=C(O)c1ccc(Nc2ccc(C(F)(F)F)cc2)c(-c2cc(F)ccn2)c1 [Compound 49, 3-(4-fluoro-2-pyridyl)-4-[4-(trifluoromethyl)anilino] benzoic acid] | ≥ 7.00
4 | COC(=O)c1ccc(Nc2cccc(C(F)(F)F)c2)c(-c2nnn(C)n2)c1 [Compound 2, methyl 3-(2-methyl-2H-telrazol-5-yl)-4-((3-(trifluoromethyl)phenyl)amino)benzoate] | ≥ 7.00
5 | O=C(O)c1ccc(Nc2cccc(C(F)(F)F)c2)c(-c2nnn(Cc3ccccc3F)n2)c1 [Compound 27, 3-(2-(2-fluorobenzyl)-2H-tetrazol-5-yl)-4-((3-(trifluoromethyl)phenyl)amino) benzoic acid] | ≥ 7.00
6 | O=C(O)c1ccc(Nc2ccc(C(F)(F)F)cc2)c(-c2cccnn2)c1 [Compound 46, 3-pyridazin-3-yl-4-[4-(trifluoromethyl)anilino] benzoic acid] | ≥ 7.00
7 | COC(=O)c1ccc(Nc2ccc(C(F)(F)F)cc2)c(-c2ccnc(N)c2)c1 [Compound 34, methyl 3-(2-amino-4-pyridyl)-4-[4-(trifluoromethyl)anilino] benzoate] | ≥ 7.00
8 | O=C(O)c1ccc(Nc2ccc(C(F)(F)F)cc2)c(-c2ccc(Cl)cn2)c1 [Compound 52, 3-(5-chloro-2-pyridyl)-4-[4 (trifluoromethyl)anilino] benzoic acid] | ≥ 7.00
9 | COC(=O)c1ccc(Nc2ccc(C(F)(F)F)cc2)c(-c2cn(C)cn2)c1 [Compound 33, methyl 3-(1-methyl-1H-imidazol-4-yl)-4-((4-(trifluoromethyl)phenyl)amino)benzoate] | ≥ 7.00
10 | CCNC(=O)c1ccc(Nc2ccc(C(F)(F)F)cc2)c(-c2nnn(C)n2)c1 [Compound 10, N-ethyl-3-(2-methyl-2H-tetrazol-5-yl)-4-((4-(trifluoromethyl)phenyl)amino) benzamide] | ≥ 7.00
11 | Cn1cnc(-c2cc(C(=O)NC3CC3)ccc2Nc2ccc(C(F)(F)F)cc2)c1 [Compound 37, N-cyclopropyl-3-(1-methylimidazol-4-yl)-4-[4 (trifluoromethyl)anilino] benzamide] | ≥ 7.00
12 | Cn1cnc(-c2cc(C(=O)NS(N)(=O)=O)ccc2Nc2ccc(C(F)(F)F)cc2)c1 [Compound 38, 3-(1-methylimidazol-4-yl)-N-sulfamoyl-4-[4-(trifluoromethyl)anilino] benzamide] | ≥ 7.00
13 | Cn1nnc(-c2cc(C(=O)NCCOCCOCCNC(=O)OC(C)(C)C)ccc2Nc2ccc(C(F)(F)F)cc2)n1 [Compound 47, tert-butyl (2-(2-(2-(3-(2-methyl-2H-tetrazol-5-yl)-4-((4-(trifluoromethyl)phenyl)amino)benzamido)ethoxy)ethoxy)ethyl)carbamate] | 6.00 to 7.00
14 | Cn1nnc(-c2cc(C(=O)O)ccc2Nc2cccc(C(F)(F)F)c2)n1 [Compound 4, 3-(2-methyl-2H-tetrazol-5-yl)-4-((3-(trifluoromethyl)phenyl)amino) benzoic acid] | ≥ 7.00
15 | CNC(=O)c1ccc(Nc2cccc(C(F)(F)F)c2)c(-c2nnn(C)n2)c1 [Compound 5, N-methyl-3-(2-methyl-2H-tetrazol-5-yl)-4-((3-(trifluoromethyl)phenyl)amino) benzamide] | ≥ 7.00
16 | CCN(CC)C(=O)c1ccc(Nc2ccc(C(F)(F)F)cc2)c(-c2nnn(C)n2)c1 [Compound 17, N,N-diethyl-3-(2-methyl-2H-tetrazol-5-yl)-4-((4-(trifluoromethyl)phenyl)amino) benzamide] | 6.00 to 7.00
17 | COCC(=O)NCCOCCOCCNC(=O)c1ccc(Nc2ccc(C(F)(F)F)cc2)c(-c2nnn(C)n2)c1 [Compound 64, 3-(2-methyl-2H-tetrazol-5-yl)-N-(4-oxo-2,8,11-trioxa-5-azatridecan-13-yl)-4-((4-(trifluoromethyl)phenyl)amino) benzamide] | 6.00 to 7.00
18 | O=C(O)c1ccc(Nc2ccc(C(F)(F)F)cc2)c(-c2nccs2)c1 [Compound 42, 3-(thiazol-2-yl)-4-((4-(trifluoromethyl)phenyl)amino) benzoic acid] | ≥ 7.00
19 | CC(C)NC(=O)c1ccc(Nc2ccc(C(F)(F)F)cc2)c(-c2cn(C)cn2)c1 [Compound 36, N-Isopropyl-3-(-methylimidazol-4-yl)-4-[4-(trifluoromethyl)anilino] benzamide] | ≥ 7.00
20 | O=C(O)c1ccc(Nc2ccc(C(F)(F)F)cc2)c(-c2ncccn2)c1 [Compound 40, 3-(pyrimidin-2-yl)-4-((4-(trifluoromethyl)phenyl)amino) benzoic acid] | ≥ 7.00
21 | CC(=O)NCCOCCOCCNC(=O)c1ccc(Nc2ccc(C(F)(F)F)cc2)c(-c2nnn(C)n2)c1 [Compound 45, N-(2-(2-(2-acetamidoethoxy)ethoxy)ethyl)-3-(2-methyl-2H-tetrazol-5-yl)-4-((4-(trifluoromethyl)phenyl)amino) benzamide] | ≥ 7.00
22 | O=C(O)c1ccc(Nc2ccc(C(F)(F)F)cc2)c(-c2ccccn2)c1 [Compound 39, 3-(pyridin-2-yl)-4-((4-(trifluoromethyl)phenyl)amino) benzoic acid] | ≥ 7.00
23 | COC(=O)c1ccc(Nc2ccc(C(=O)NC(C)C)cc2)c(-c2nnn(C)n2)c1 [Compound 12, methyl 4-((4-(isopropylcarbamoyl)phenyl)amino)-3-(2-methyl-2H-tetrazol-5-yl)benzoate] | 5.52 to 6.00
24 | COC(=O)c1ccc(Nc2ccc(C(F)(F)F)cc2)c(-c2cc(N)ncn2)c1 [Compound 56, methyl 3-(6-aminopyrimidin-4-yl)-4-[4-(trifluoromethyl)anilino] benzoate] | ≥ 7.00
25 | Cn1nnc(-c2cc(C(=O)O)ccc2Nc2ccc(C(F)(F)F)cc2)n1 [Compound 3, 3-(2-methyl-2H-tetrazol-5-yl)-4-((4-(trifluoromethyl)phenyl)amino) benzoic acid] | ≥ 7.00
